# Measurements taken from patent publication US6916812B2, “Alpha-aminoamide derivatives as melanocortin agonists” (Bristol-Myers Squibb Company, priority 2001, dated 2005).
# Like-named read-outs stand apart in the source and are kept apart here.
# Biological target: T1, cloned human MC4R (Homo sapiens, UniProt P32245)
# T1 construct: made in house; host or cells: Hi5 insect cells (baculovirus infection); membrane preparation
# Test: Membrane binding assay: competitive inhibition of [125I]NDP-α-MSH binding
# Conditions: for IC50: read-out: MC4R IC50; for inhibition at 10 µM: read-out: Displacement Rate (%) (at 10 μM)
# [1] = at 10 μM, [125I]NDP-α-MSH displacement
# T1 sequence (P32245 whole entry): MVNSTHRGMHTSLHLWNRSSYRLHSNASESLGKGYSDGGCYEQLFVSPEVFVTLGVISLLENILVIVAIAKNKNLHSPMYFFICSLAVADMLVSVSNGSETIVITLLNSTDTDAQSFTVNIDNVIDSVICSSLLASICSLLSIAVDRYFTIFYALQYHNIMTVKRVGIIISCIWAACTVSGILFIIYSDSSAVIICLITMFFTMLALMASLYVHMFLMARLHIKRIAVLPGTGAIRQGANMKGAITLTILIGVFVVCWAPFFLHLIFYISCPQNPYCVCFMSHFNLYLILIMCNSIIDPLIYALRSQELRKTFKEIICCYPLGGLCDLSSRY
Structure (SMILES),Displacement Rate (%) (at 10 μM) [1],IC50 [µM],inhibition at 10 µM [%],inhibition at 10 µM [1] [%]
N[C@@H](Cc1ccc(OCc2ccccc2-c2ccccc2)cc1)C(=O)N1CCN(Cc2cccc(Cl)c2Cl)CC1 [Example 214],+++ (+++ = 91-100),< 1.5,–,–
Cc1ccccc1CCOc1ccc(C[C@H](N)C(=O)N2CCN(Cc3cccc(Cl)c3Cl)CC2)cc1 [Example 237],+++ (+++ = 91-100),< 1.5,–,–
N[C@@H](Cc1ccc(OCc2ccccc2)cc1)C(=O)N1CCCN(Cc2c3ccccc3cc3ccccc23)CC1 [Example 20],–,> 3,91 to 100,–
COc1ccc(CC(C)N2CCCN(C(=O)[C@@H](N)Cc3ccc(OCc4ccccc4)cc3)CC2)cc1 (stereo partly shown) [Example 67],–,> 3,–,35 to 70
CN(C)c1ccc(CN2CCN(C(=O)[C@@H](N)Cc3ccc(OCc4ccccc4)cc3)CC2)c2ccccc12 [Example 137],–,> 3,–,35 to 70
COc1cccc(CN2CCCN(C(=O)[C@@H](N)Cc3ccc(OCc4ccccc4)cc3)CC2)c1OC [Example 54],–,> 3,–,35 to 70
N[C@@H](Cc1ccc(OCCc2ccc(Cl)cc2Cl)cc1)C(=O)N1CCN(Cc2cccc(Cl)c2Cl)CC1 [Example 246],+++ (+++ = 91-100),< 1.5,–,–
CC(C)CN1CCN(C(=O)[C@@H](N)Cc2ccc(OCc3ccccc3)cc2)CC1 [Example 146],–,> 3,–,35 to 70
N[C@@H](Cc1ccc(OCc2ccccc2)cc1)C(=O)N1CCN(Cc2cn(Cc3ccccc3)c3ccccc23)CC1 [Example 87],–,< 1.5,–,91 to 100
N[C@@H](Cc1ccc(-c2ccc(Cl)c(Cl)c2)cc1)C(=O)N1CCN(Cc2cccc(Cl)c2Cl)CC1 [Example 294],–,< 1.5,–,91 to 100
N[C@@H](Cc1ccc(OCCc2cccc3ccccc23)cc1)C(=O)N1CCN(Cc2cccc(Cl)c2Cl)CC1 [Example 244],+++ (+++ = 91-100),< 1.5,–,–
CCCCCCCCOc1ccc(CN2CCCN(C(=O)[C@@H](N)Cc3ccc(OCc4ccccc4)cc3)CC2)cc1 [Example 14],–,< 1.5,–,91 to 100
COc1ccc2ccccc2c1CN1CCCN(C(=O)[C@@H](N)Cc2ccc(OCc3ccccc3)cc2)CC1 [Example 43],–,1.5 to 3,–,71 to 90
COc1cccc(COc2ccc(C[C@H](N)C(=O)N3CCN(Cc4cccc(Cl)c4Cl)CC3)cc2)c1 [Example 203],+++ (+++ = 91-100),1.5 to 3,–,–
N[C@@H](Cc1ccc(OCc2ccccc2)cc1)C(=O)N1CCN(Cc2cccc([N+](=O)[O-])c2)CC1 [Example 152],–,> 3,–,35 to 70
N[C@@H](Cc1ccc(-c2ccc(Cl)cc2)cc1)C(=O)N1CCN(Cc2cccc(Cl)c2Cl)CC1 [Example 298],–,< 1.5,–,91 to 100
N[C@@H](Cc1ccc(OCc2c3ccccc3cc3ccccc23)cc1)C(=O)N1CCN(Cc2cccc(Cl)c2Cl)CC1 [Example 232],++ (++ = 71-90),> 3,–,–
CC(C)(C)c1ccc(-c2ccc(C[C@H](N)C(=O)N3CCN(Cc4cccc(Cl)c4Cl)CC3)cc2)cc1 [Example 305],–,< 1.5,–,91 to 100
CC(C)(C)c1ccc(COc2ccc(C[C@H](N)C(=O)N3CCN(Cc4cccc(Cl)c4Cl)CC3)cc2)cc1 [Example 201],+++ (+++ = 91-100),< 1.5,–,–
N[C@@H](Cc1ccc(OCc2ccc(C(F)(F)F)cc2)cc1)C(=O)N1CCN(Cc2cccc(Cl)c2Cl)CC1 [Example 181],+++ (+++ = 91-100),< 1.5,–,–
COc1ccc(CCCOc2ccc(C[C@H](N)C(=O)N3CCN(Cc4cccc(Cl)c4Cl)CC3)cc2)cc1 [Example 264],++ (++ = 71-90),1.5 to 3,–,–
CC(C)N1CCN(C(=O)[C@@H](N)Cc2ccc(OCc3ccccc3)cc2)CC1 [Example 143],–,> 3,–,35 to 70
N[C@@H](Cc1ccc(-c2ccccc2C(F)(F)F)cc1)C(=O)N1CCN(Cc2cccc(Cl)c2Cl)CC1 [Example 315],–,1.5 to 3,–,91 to 100
N[C@@H](Cc1ccc(OCCc2ccc(F)cc2)cc1)C(=O)N1CCN(Cc2cccc(Cl)c2Cl)CC1 [Example 247],+++ (+++ = 91-100),< 1.5,–,–
CC(C)(C)c1cc(CN2CCCN(C(=O)[C@@H](N)Cc3ccc(OCc4ccccc4)cc3)CC2)cc(C(C)(C)C)c1O [Example 26],–,1.5 to 3,–,71 to 90
CC(C)(C)c1ccc(Oc2cccc(CN3CCN(C(=O)[C@@H](N)Cc4ccc(OCc5ccccc5)cc4)CC3)c2)cc1 [Example 80],–,< 1.5,–,91 to 100
N[C@@H](Cc1ccc(OCc2ccccc2)cc1)C(=O)N1CCCN(Cc2cc(F)ccc2F)CC1 [Example 66],–,> 3,–,35 to 70
N[C@@H](Cc1ccc(OCc2ccccc2)cc1)C(=O)N1CCCN(C2CCC(c3ccccc3)CC2)CC1 (stereo partly shown) [Example 41],–,> 3,–,71 to 90

Structure (SMILES),Displacement Rate (%) (at 10 μM) [1],IC50 [µM],inhibition at 10 µM [%],inhibition at 10 µM [1] [%]
N[C@@H](Cc1ccc(OCCc2ccc3ccccc3c2)cc1)C(=O)N1CCN(Cc2cccc(Cl)c2Cl)CC1 [Example 256],+++ (+++ = 91-100),< 1.5,–,–
CCCCOc1ccc(COc2ccc(C[C@H](N)C(=O)N3CCN(Cc4cccc(Cl)c4Cl)CC3)cc2)cc1 [Example 230],++ (++ = 71-90),1.5 to 3,–,–
Cc1ccc(S(=O)(=O)n2cc(CN3CCN(C(=O)[C@@H](N)Cc4ccc(OCc5ccccc5)cc4)CC3)c3ccccc32)cc1 [Example 97],–,< 1.5,–,91 to 100
N[C@@H](Cc1ccc(OCc2ccc(Cl)cc2Cl)cc1)C(=O)N1CCN(Cc2cccc(Cl)c2Cl)CC1 [Example 200],+++ (+++ = 91-100),< 1.5,–,–
N[C@@H](Cc1ccc(OCc2ccccc2)cc1)C(=O)N1CCN(Cc2ccccc2[N+](=O)[O-])CC1 [Example 111],–,> 3,–,71 to 90
N[C@@H](Cc1ccc(-c2ccccc2F)cc1)C(=O)N1CCN(Cc2cccc(Cl)c2Cl)CC1 [Example 309],–,< 1.5,–,91 to 100
N[C@@H](Cc1ccc(OCc2ccccc2)cc1)C(=O)N1CCN(Cc2cc(O)ccc2[N+](=O)[O-])CC1 [Example 148],–,> 3,35 to 70,–
N[C@@H](Cc1ccc(-c2cccc(F)c2)cc1)C(=O)N1CCN(Cc2cccc(Cl)c2Cl)CC1 [Example 311],–,< 1.5,–,91 to 100
CCc1ccc(CN2CCCN(C(=O)[C@@H](N)Cc3ccc(OCc4ccccc4)cc3)CC2)s1 [Example 45],–,> 3,–,35 to 70
Cc1ccc(COc2ccc(C[C@H](N)C(=O)N3CCN(Cc4cccc(Cl)c4Cl)CC3)cc2)cc1C [Example 191],+++ (+++ = 91-100),< 1.5,–,–
CCCCc1ccc(CN2CCN(C(=O)[C@@H](N)Cc3ccc(OCc4ccccc4)cc3)CC2)cc1 [Example 96],–,< 1.5,–,91 to 100
CCCCCCCCOc1ccc(CN2CCN(C(=O)[C@@H](N)Cc3ccc(OCc4ccccc4)cc3)CC2)cc1 [Example 133],–,< 1.5,–,35 to 70
CCCCCOc1ccc(CN2CCCN(C(=O)[C@@H](N)Cc3ccc(OCc4ccccc4)cc3)CC2)cc1 [Example 32],–,< 1.5,–,71 to 90
N[C@@H](Cc1ccc(OCc2ccccc2)cc1)C(=O)N1CCN(Cc2cccc(Cl)c2Cl)CC1 [Example 178],+++ (+++ = 91-100),< 1.5,–,–
Cc1cc(C)cc(COc2ccc(C[C@H](N)C(=O)N3CCN(Cc4cccc(Cl)c4Cl)CC3)cc2)c1 [Example 190],+++ (+++ = 91-100),1.5 to 3,–,–
N[C@@H](Cc1ccc(OCc2ccccc2)cc1)C(=O)N1CCN(Cc2c(F)cccc2Cl)CC1 [Example 140],–,> 3,–,35 to 70
N[C@@H](Cc1ccc(OCc2ccccc2)cc1)C(=O)N1CCN(Cc2ccccc2-c2ccccc2)CC1 [Example 109],–,> 3,–,71 to 90
Cc1cccc(CN2CCCN(C(=O)[C@@H](N)Cc3ccc(OCc4ccccc4)cc3)CC2)c1 [Example 65],–,> 3,–,35 to 70
CCn1c2ccccc2c2cc(CN3CCN(C(=O)[C@@H](N)Cc4ccc(OCc5ccccc5)cc4)CC3)ccc21 [Example 89],–,< 1.5,–,91 to 100
COc1cc(COc2ccc(C[C@H](N)C(=O)N3CCN(Cc4cccc(Cl)c4Cl)CC3)cc2)cc(OC)c1OC [Example 236],+ (+ = 35-70),–,–,–
N[C@@H](Cc1ccc(OCc2ccccc2)cc1)C(=O)N1CCCN(Cc2cccc(Oc3cccc(C(F)(F)F)c3)c2)CC1 [Example 16],–,< 1.5,–,91 to 100
N[C@@H](Cc1ccc(OCc2ccccc2)cc1)C(=O)N1CCCN(Cc2cccc(Oc3ccc(Cl)c(Cl)c3)c2)CC1 [Example 19],–,< 1.5,–,91 to 100
Cc1ccc(CCOc2ccc(C[C@H](N)C(=O)N3CCN(Cc4cccc(Cl)c4Cl)CC3)cc2)cc1 [Example 239],+++ (+++ = 91-100),< 1.5,–,–
CCc1ccc(CN2CCCN(C(=O)[C@@H](N)Cc3ccc(OCc4ccccc4)cc3)CC2)cc1 [Example 38],–,> 3,–,71 to 90
N[C@@H](Cc1ccc(OCc2ccccc2)cc1)C(=O)N1CCCN(Cc2ccc3c(c2)OCCO3)CC1 [Example 70],–,> 3,–,35 to 70
N[C@@H](Cc1ccc(OCc2ccccc2)cc1)C(=O)N1CCCN(Cc2ccc(C(c3ccccc3)c3ccccc3)cc2)CC1 [Example 1],–,< 1.5,–,91 to 100
N[C@@H](Cc1ccc(OCCc2cccc(OCc3ccccc3)c2)cc1)C(=O)N1CCN(Cc2cccc(Cl)c2Cl)CC1 [Example 250],+++ (+++ = 91-100),< 1.5,–,–
